Experimental findings from PubChem BioAssay (NCI) are described below.

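Cultured in 96-well plates, cells were exposed to test compound for 48 hours across five concentrations. The concentration for 50% growth inhibition is given as GI50. TGI: total growth inhibition.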 Where only a bound is given, the exact number is not on record here.

Some test systems named below: PC-3 prostate; 786-0 renal; MDA-MB-435; HS 578T breast; MDA-MB-231 breast; M19-MEL melanoma; RXF-631 renal; SNB-78 CNS; XF 498 CNS; KM20L2 colon; DMS 273 small cell lung; LXFL 529 NSCLC; DMS 114 small cell lung; SN12K1 renal; P388 leukemia; P388/ADR leukemia.
Assay in all cases: NCI tumour cell line growth inhibition, 48 h

Regarding `O=C1Nc2ccccc2S/C1=C\c1ccccc1C(F)(F)F`, the TGI in the assay with PC-3 prostate, in the assay on 786-0 renal, with MDA-MB-435, with HS 578T breast and with MDA-MB-231 breast was above 100 µM throughout.
Take `CCCCCCCCCCCCCCCC(=O)OCC1CCCN2CCCCC12` (stereo not drawn): the TGI in the assay with PC-3 prostate, with 786-0 renal, with MDA-MB-435, with HS 578T breast and in the assay with MDA-MB-231 breast was above 100 µM throughout.
As for `CC(C)OC(=O)C1=C(O)c2ccccc2S(=O)(=O)N1`, the TGI in the assay with M19-MEL melanoma, with RXF-631 renal, in the assay on 786-0 renal, in the assay with SNB-78 CNS, in the assay on XF 498 CNS and with KM20L2 colon was above 100 µM throughout. Also, the TGI in the assay with DMS 273 small cell lung and in the assay with LXFL 529 NSCLC was above 100 µM throughout.
As for `CC1CCC(O)(C(C)(C(=O)O)c2ccccc2)CC1` (stereo not drawn), the TGI in the assay on PC-3 prostate, in the assay with 786-0 renal, in the assay on MDA-MB-435, in the assay with HS 578T breast and with MDA-MB-231 breast was above 100 µM throughout.
With `Cc1ccc([N+](=O)[O-])cc1NC(=O)C(=O)C(C(=O)c1ccccc1F)C1OC(=O)c2ccccc21` (stereo not drawn), the TGI in the assay on M19-MEL melanoma was above 100 µM; with RXF-631 renal, above 100 µM; with SNB-78 CNS, above 100 µM; with XF 498 CNS it was above 100 µM; with DMS 114 small cell lung, 61.2 µM; with KM20L2 colon it was above 100 µM. Further, the TGI in the assay on DMS 273 small cell lung and with LXFL 529 NSCLC was above 100 µM throughout.
`CC(=O)O[C@H]1CC[C@@]2(C)C(=CC[C@@H]3[C@@H]2CC[C@]2(C)Nc4c(cnn4S(C)(=O)=O)C[C@@H]32)C1`: the TGI with PC-3 prostate, with MDA-MB-435, in the assay on HS 578T breast and with MDA-MB-231 breast was above 100 µM each time.
For the compound `O=C(O)NCc1ccccc1` (tested in a mixture with another compound), the TGI in the assay on PC-3 prostate is above 66.4 µM; in the assay on 786-0 renal, above 100 µM; in the assay with MDA-MB-435, above 86.8 µM; with HS 578T breast, above 82.8 µM; with MDA-MB-231 breast it was above 72.2 µM.
Regarding `Cc1ccc(S(=O)(=O)N/N=c2\c(C)c(C3=NS(=O)(=O)c4cc(S(N)(=O)=O)c(Cl)cc4N3)oc3c(Cl)cc(Cl)cc23)cc1`, the TGI with M19-MEL melanoma, in the assay with RXF-631 renal, in the assay on 786-0 renal, in the assay on SNB-78 CNS, with DMS 114 small cell lung and in the assay on KM20L2 colon was above 100 µM in each case. Moreover, the TGI was 54 µM in the assay with DMS 273 small cell lung and above 100 µM in the assay on LXFL 529 NSCLC.
As to `CCOC(=O)Nc1cc2c(c(N)n1)N=C(c1ccccc1)[C@H](C)N2`, the TGI is 29.2 µM with M19-MEL melanoma; below 0.0001 µM with MDA-MB-435; below 0.0001 µM in the assay on XF 498 CNS; below 0.0001 µM in the assay on DMS 114 small cell lung; below 0.0001 µM with KM20L2 colon; above 100 µM in the assay with LXFL 529 NSCLC.
In the case of `C/C(=N\Oc1cc(Cl)ncn1)c1ccccn1`, the TGI with PC-3 prostate was above 100 µM; in the assay on MDA-MB-435 it was above 100 µM; in the assay with HS 578T breast it was above 100 µM; with MDA-MB-231 breast it was 87.6 µM.
With `COc1cc(N/N=C/C#N)cc(OC)c1OC`, the TGI in the assay on PC-3 prostate, with MDA-MB-435, with HS 578T breast and with MDA-MB-231 breast was above 10 µM each time.
For `Cc1cc2c(cc1C)[n+](=O)c(C#N)c(Cl)n2[O-]`, the TGI with PC-3 prostate is above 100 µM; in the assay with MDA-MB-435, above 100 µM; in the assay with HS 578T breast it was above 100 µM; in the assay with MDA-MB-231 breast, 63.8 µM.
`Nc1nncc2c1ccn2C1OC(CO)C(O)C1O` (stereo not drawn): the TGI in the assay on M19-MEL melanoma, in the assay on SNB-78 CNS, in the assay on DMS 114 small cell lung, with KM20L2 colon, in the assay with DMS 273 small cell lung and in the assay on LXFL 529 NSCLC was above 100 µM throughout.
For `O=C(CCl)NC(Cc1ccc(F)cc1)C(=O)O` (stereo not drawn), the TGI with M19-MEL melanoma, in the assay with SN12K1 renal, in the assay with SNB-78 CNS, in the assay with P388 leukemia, in the assay on XF 498 CNS and in the assay on DMS 114 small cell lung was above 100 µM in each case. The TGI in the assay with P388/ADR leukemia, with KM20L2 colon and in the assay on DMS 273 small cell lung was above 100 µM throughout.
With `CCC1CN2CCC1CC2` (stereo not drawn), the TGI in the assay on M19-MEL melanoma, with SN12K1 renal, in the assay on SNB-78 CNS, in the assay on P388 leukemia, in the assay with XF 498 CNS and with DMS 114 small cell lung was above 100 µM each time. The TGI in the assay with P388/ADR leukemia, with KM20L2 colon and in the assay on DMS 273 small cell lung was above 100 µM throughout.
For the compound `N=c1nc2n(cc1F)[C@@H]1O[C@H](CO)[C@@H](O)[C@@H]1O2`, the TGI was above 100 µM with PC-3 prostate; above 100 µM in the assay with M19-MEL melanoma; above 38.9 µM in the assay with 786-0 renal; above 100 µM in the assay with MDA-MB-435; above 100 µM in the assay with SNB-78 CNS; above 100 µM in the assay with XF 498 CNS. In addition, the TGI in the assay on HS 578T breast, with KM20L2 colon, in the assay on MDA-MB-231 breast, in the assay with DMS 273 small cell lung and in the assay with LXFL 529 NSCLC was above 100 µM throughout.
Turning to `C=C1CC[C@@H](Br)C(C)(C)[C@]12CCC(C)(O)C(Cl)C2` (stereo partly drawn), the TGI with M19-MEL melanoma is 34.3 µM; in the assay with RXF-631 renal it was 41.9 µM; in the assay on SNB-78 CNS, above 100 µM; in the assay on DMS 114 small cell lung, 31.8 µM; in the assay on KM20L2 colon it was 32.9 µM; in the assay on DMS 273 small cell lung, 36.2 µM.
For `Oc1c2c(c3c4c1N=CC=4CCN=3)-c1c(Br)cc(Br)cc1CCN2`, the TGI was 3.33 µM in the assay with M19-MEL melanoma; 15.4 µM in the assay with SN12K1 renal; 29.2 µM in the assay on SNB-78 CNS; above 38.5 µM with XF 498 CNS; 7.12 µM in the assay with DMS 114 small cell lung; 5.83 µM in the assay with P388/ADR leukemia. Further, the TGI in the assay with KM20L2 colon is 8.2 µM; in the assay on DMS 273 small cell lung, 11.8 µM.
Take `CC(=O)OC/C=C/Cn1ncc(=O)[nH]c1=O`: the TGI in the assay on PC-3 prostate, in the assay with MDA-MB-435, with HS 578T breast and in the assay with MDA-MB-231 breast was above 100 µM in each case.
Regarding `CC[C@H](Nc1nc(N)nc(C)c1C#N)c1nc2cccc(NCc3ccc(C(=O)NO)cc3)c2c(=O)n1-c1ccccc1`, the GI50 in the assay with PC-3 prostate is 0.905 µM; with HS 578T breast it was 1.95 µM; in the assay with MDA-MB-231 breast it was 1.84 µM. Also, the values for the TGI in the assay on PC-3 prostate, in the assay on HS 578T breast and in the assay on MDA-MB-231 breast were 3.3 µM, 6.08 µM and 5.3 µM, respectively.
As to `CCOC(=O)[C@H]1Nc2c(cccc2[N+](=O)[O-])[C@H]2OCC[C@@H]12`, the TGI in the assay with M19-MEL melanoma, with RXF-631 renal, with SNB-78 CNS, in the assay with XF 498 CNS, in the assay on DMS 114 small cell lung and in the assay with KM20L2 colon was above 100 µM in each case. The TGI with DMS 273 small cell lung and in the assay on LXFL 529 NSCLC was above 100 µM in each case.
